Source: ChEMBL document CHEMBL1143941, “Design, synthesis and structure-activity study of shorter hexa peptide analogues as HIV-1 protease inhibitors” (Bioorg Med Chem, 2008)

The compounds below were run on Human immunodeficiency virus 1 (assay: Inhibition of recombinant HIV1 protease at 100 ug/ml).

| inhibition | Compound |
| --- | --- |
| 64.9% | H-LLEYVW-OH |
| 58.6% | H-LLEYVY-OH |

Second part, the compound before the results:

| Compound | inhibition |
| --- | --- |
| CC(=O)N[C@H](C(=O)N[C@H](C(=O)N[C@@H](CC(C)C)[C@@H](O)CC(=O)N[C@@H](C)C(=O)N[C@@H](CC(C)C)[C@@H](O)CC(=O)O)C(C)C)C(C)C | 98.5% |
| H-LLEYVF-OH | 52.3% |
| H-LLEYVM-OH | 47.2% |
